Laboratory results published in BindingDB's records for doi:10.3109/14756360903213481 (Brno University of Technology, 2010).

Tests used:
Acetylcholinesterase = Acetylcholinesterase (Electrophorus electricus, UniProt O42275); assay: Acetylcholinesterase Inhibition Assay; conditions: pH 8; 30 °C
Experimental: (§1) The assay was carried out according to the Ellman method [Ellman et al., Biochem. Pharmacol., 7:88-95], optimized for 96-well microplates using a Tecan Sunrise™ absorbance reader. […] For the blank, 50 μL of 0.26 U mL^−1 AChE was replaced by the same volume of 0.1 M phosphate buffer pH 8.0. In a typical assay, solutions of AChE, DTNB, and the compound to be tested, as well as the phosphate buffer, were mixed and incubated for 30 min at 30°C. Next, the reaction was started by the addition of ATCI solution. […] Reaction velocities were determined from the slopes of the linear portions of the graphs of time versus concentration of 5-thio-2-nitrobenzoate. All assays were done in triplicate.

[1] = biological target: Carboxylic ester hydrolase (Equus caballus, UniProt Q9N1N9); assay: Acetylcholinesterase Inhibition Assay; conditions: pH 8; 30 °C
Experimental: as §1

Chain of Carboxylic ester hydrolase (Q9N1N9 whole entry): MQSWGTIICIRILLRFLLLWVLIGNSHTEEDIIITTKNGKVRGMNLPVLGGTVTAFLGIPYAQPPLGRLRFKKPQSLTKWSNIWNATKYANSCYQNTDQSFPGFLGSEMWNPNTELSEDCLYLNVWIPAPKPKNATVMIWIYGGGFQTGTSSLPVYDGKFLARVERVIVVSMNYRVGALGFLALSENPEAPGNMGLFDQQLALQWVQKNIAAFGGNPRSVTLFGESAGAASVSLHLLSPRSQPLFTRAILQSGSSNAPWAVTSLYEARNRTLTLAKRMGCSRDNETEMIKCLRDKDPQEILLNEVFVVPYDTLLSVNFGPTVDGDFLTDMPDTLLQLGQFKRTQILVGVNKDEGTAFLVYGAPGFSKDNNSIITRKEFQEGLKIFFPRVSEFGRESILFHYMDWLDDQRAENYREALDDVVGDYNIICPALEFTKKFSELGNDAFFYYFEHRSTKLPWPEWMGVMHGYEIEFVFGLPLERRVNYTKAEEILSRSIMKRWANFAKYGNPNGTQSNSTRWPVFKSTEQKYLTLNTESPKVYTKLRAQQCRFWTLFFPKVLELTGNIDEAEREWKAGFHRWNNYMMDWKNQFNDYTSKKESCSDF
Chain of Acetylcholinesterase (O42275 whole entry): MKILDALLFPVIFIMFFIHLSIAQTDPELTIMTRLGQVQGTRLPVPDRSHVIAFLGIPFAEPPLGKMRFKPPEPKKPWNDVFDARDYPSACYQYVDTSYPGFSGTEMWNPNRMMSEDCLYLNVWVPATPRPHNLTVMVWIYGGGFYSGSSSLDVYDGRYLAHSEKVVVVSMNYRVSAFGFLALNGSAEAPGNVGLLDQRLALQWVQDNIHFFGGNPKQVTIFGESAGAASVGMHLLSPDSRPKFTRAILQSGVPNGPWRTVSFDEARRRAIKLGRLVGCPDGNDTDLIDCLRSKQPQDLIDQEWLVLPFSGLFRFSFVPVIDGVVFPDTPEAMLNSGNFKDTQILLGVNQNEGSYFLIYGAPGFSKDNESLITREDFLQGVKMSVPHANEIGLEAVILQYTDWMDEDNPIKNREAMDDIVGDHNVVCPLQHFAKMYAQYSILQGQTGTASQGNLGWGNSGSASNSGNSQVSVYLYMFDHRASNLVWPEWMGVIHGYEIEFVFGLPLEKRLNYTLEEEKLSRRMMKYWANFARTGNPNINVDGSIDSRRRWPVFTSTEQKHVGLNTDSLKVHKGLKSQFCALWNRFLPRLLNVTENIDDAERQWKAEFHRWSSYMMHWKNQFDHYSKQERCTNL

Compound | IC50 (Acetylcholinesterase) | IC50 [1]
O=C1C(Cc2ccc(O)cc2)=C(Cc2ccc(O)cc2)C(=O)C1(c1ccc(O)cc1)C1(c2ccc(O)cc2)C(=O)C(Cc2ccc(O)cc2)=C(Cc2ccc(O)cc2)C1=O [Nostotrebin 6] | 5.5 µM | 6.8 µM
COc1ccc2c3c1O[C@H]1C[C@@H](O)C=C[C@@]31CCN(C)C2 [galantamine] |  | 23.3 µM
